US6914045B2, “Glycopeptide antibiotics” (Wyeth Holdings Corporation, priority 2001, dated 2005)

What was measured:
Test in all cases: in vitro antibacterial evaluation, MIC by broth dilution
Assay type in all cases: cell-based
Streptococcus sp. = conditions: broth dilution, 18 hours at 35° C.; for MIC Streptococcus pneumoniae (ATCC 6301): strain ATCC 6301; for MIC Streptococcus pneumoniae (GC 1894): strain GC 1894; for MIC Streptococcus pyogenes (GC 4563): strain GC 4563; for MIC Streptococcus agalactiae (GC 4564): strain GC 4564; for MIC Streptococcus pneumoniae (GC 4565): strain GC 4565
Method in brief: (§1)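 Test organisms, which included recent clinical isolates resistant to methicillin, penicillin and/or vancomycin, were inoculated at 5×10^5 CFU/mL into Muller-Hinton II […] containing antibiotic at 64-0.06 μg/mL. Minimum inhibitory concentrations were then read as the lowest level inhibiting growth.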

Staphylococcus sp. = conditions: broth dilution, 18 hours at 35° C.; for MIC Staphylococcus aureus (GC 1131): strain GC 1131
Method in brief: as §1

Escherichia coli = tested on: Escherichia coli
Method in brief: as §1

Enterococcus sp. = conditions: broth dilution, 18 hours at 35° C.; for MIC Enterococcus faecalis (ATCC 29212): strain ATCC 29212; for MIC Enterococcus faecalis (GC 2242): strain GC 2242; for MIC Enterococcus faecium (GC 2243): strain GC 2243; for MIC Enterococcus faecalis (GC 2691): strain GC 2691; for MIC Enterococcus faecalis (GC 3059): strain GC 3059; for MIC Enterococcus faecalis (GC 4552): strain GC 4552; for MIC Enterococcus faecalis (GC 4553): strain GC 4553; for MIC Enterococcus faecalis (GC 4554): strain GC 4554; for MIC Enterococcus faecium (GC 4556): strain GC 4556; for MIC Enterococcus faecium (GC 4557): strain GC 4557; for MIC Enterococcus avium (GC 4558): strain GC 4558; for MIC Enterococcus faecalis (GC 6189): strain GC 6189
Method in brief: as §1

CC(c1ccccc1)C1NC(=O)CNC(=O)C(CO)NC(=O)C(C(O)C2CNC(=N)N2C2OC(CO)C(O)C(O)C2O)NC(=O)C(C(O)C2CNC(=N)N2)NC(=O)C(Cc2ccc(OC3OC(CO)C(OC4OC5COC(c6cccc(OCc7ccc([N+](=O)[O-])cc7)c6)OC5C(O)C4O)C(O)C3O)cc2)NC1=O (centres unmarked) [Example 182]
32 µg/mL: MIC Streptococcus agalactiae (GC 4564) (Streptococcus sp.; inoculum 5×10^5 CFU/mL) | MIC Streptococcus agalactiae (GC 4564) (Streptococcus sp.)
>64 µg/mL: MIC Staphylococcus aureus (GC 1131) (Staphylococcus sp.; inoculum 5×10^5 CFU/mL) | MIC Staphylococcus aureus (ATCC 29213) (Staphylococcus sp.; strain ATCC 29213) | MIC Staphylococcus aureus (GC 1131) (Staphylococcus sp.) | MIC Staphylococcus aureus (GC 3051) (Staphylococcus sp.; strain GC 3051) | MIC Staphylococcus aureus (GC 3053) (Staphylococcus sp.; strain GC 3053) | MIC Staphylococcus aureus (GC 4541) (Staphylococcus sp.; strain GC 4541) | MIC Staphylococcus aureus (GC 4542) (Staphylococcus sp.; strain GC 4542) | MIC Staphylococcus aureus (GC 4544) (Staphylococcus sp.; strain GC 4544) | MIC Staphylococcus aureus (GC 4545) (Staphylococcus sp.; strain GC 4545) | MIC Staphylococcus aureus-SMITH (GC 4543) (Staphylococcus sp.; strain GC 4543) | MIC Staphylococcus haemolyticus (GC 4546) (Staphylococcus sp.; strain GC 4546) | MIC Coagulase Negative Staphylococcus (GC 4547) (Staphylococcus sp.; strain GC 4547) | MIC Coagulase Negative Staphylococcus (GC 4548) (Staphylococcus sp.; strain GC 4548) | MIC Coagulase Negative Staphylococcus (GC 4549) (Staphylococcus sp.; strain GC 4549) | MIC Coagulase Negative Staphylococcus (GC 4551) (Staphylococcus sp.; strain GC 4551) | MIC Coagulase Negative Staphylococcus (GC 6257) (Staphylococcus sp.; strain GC 6257) | MIC Escherichia coli (ATCC 25922) (Escherichia coli; strain ATCC 25922, 18 hours at 35° C.) | MIC Escherichia coli (GC 4559) (Escherichia coli; strain GC 4559, 18 hours at 35° C.) | MIC Escherichia coli (GC 4560) (Escherichia coli; strain GC 4560, 18 hours at 35° C.) | MIC Enterococcus faecalis (ATCC 29212) (Enterococcus sp.; inoculum 5×10^5 CFU/mL) | MIC Enterococcus faecalis (GC 2242) (Enterococcus sp.; inoculum 5×10^5 CFU/mL) | MIC Enterococcus faecium (GC 2243) (Enterococcus sp.; inoculum 5×10^5 CFU/mL) | MIC Enterococcus faecalis (GC 2691) (Enterococcus sp.; inoculum 5×10^5 CFU/mL) | MIC Enterococcus faecalis (GC 3059) (Enterococcus sp.; inoculum 5×10^5 CFU/mL) | MIC Enterococcus faecalis (GC 4552) (Enterococcus sp.; inoculum 5×10^5 CFU/mL) | MIC Enterococcus faecalis (GC 4553) (Enterococcus sp.; inoculum 5×10^5 CFU/mL) | MIC Enterococcus faecalis (GC 4554) (Enterococcus sp.; inoculum 5×10^5 CFU/mL) | MIC Enterococcus faecium (GC 4556) (Enterococcus sp.; inoculum 5×10^5 CFU/mL) | MIC Enterococcus faecium (GC 4557) (Enterococcus sp.; inoculum 5×10^5 CFU/mL) | MIC Enterococcus avium (GC 4558) (Enterococcus sp.; inoculum 5×10^5 CFU/mL) | MIC Enterococcus faecalis (GC 6189) (Enterococcus sp.; inoculum 5×10^5 CFU/mL) | MIC Enterococcus faecalis (ATCC 29212) (Enterococcus sp.) | MIC Enterococcus faecalis (GC 2242) (Enterococcus sp.) | MIC Enterococcus faecium (GC 2243) (Enterococcus sp.) | MIC Enterococcus faecalis (GC 2691) (Enterococcus sp.) | MIC Enterococcus faecalis (GC 3059) (Enterococcus sp.) | MIC Enterococcus faecalis (GC 4552) (Enterococcus sp.) | MIC Enterococcus faecalis (GC 4553) (Enterococcus sp.) | MIC Enterococcus faecalis (GC 4554) (Enterococcus sp.) | MIC Enterococcus faecium (GC 4556) (Enterococcus sp.) | MIC Enterococcus faecium (GC 4557) (Enterococcus sp.) | MIC Enterococcus avium (GC 4558) (Enterococcus sp.) | MIC Enterococcus faecalis (GC 6189) (Enterococcus sp.)
4 µg/mL: MIC Streptococcus pneumoniae (ATCC 6301) (Streptococcus sp.; inoculum 5×10^5 CFU/mL) | MIC Streptococcus pneumoniae (ATCC 6301) (Streptococcus sp.)
8 µg/mL: MIC Streptococcus pneumoniae (GC 1894) (Streptococcus sp.; inoculum 5×10^5 CFU/mL) | MIC Streptococcus pneumoniae (GC 4565) (Streptococcus sp.; inoculum 5×10^5 CFU/mL) | MIC Streptococcus pneumoniae (GC 1894) (Streptococcus sp.) | MIC Streptococcus pneumoniae (GC 4565) (Streptococcus sp.)
64 µg/mL: MIC Streptococcus pyogenes (GC 4563) (Streptococcus sp.; inoculum 5×10^5 CFU/mL) | MIC Streptococcus pyogenes (GC 4563) (Streptococcus sp.)
